For data set [1], the system named is Candida tropicalis CCM 8264 (ATCC 750). In words: Antifungal microdilution broth method, CT. It is filed as cell-based. The following applies: 24 h, read-out: MIC CT. (In general: Broth dilution looks for growth in wells or tubes with falling amounts of substance.)
In data set [2] the test system is Mtb H37Ra ITM-M006710 (ATCC 9431). Put plainly: Microplate Alamar Blue Assay (MABA) microdilution, Mtb H37Ra. The conditions noted are these: Mycobacterium tuberculosis. It is filed as cell-based, Mycobacterium tuberculosis.
For data set [3], the system named is Klebsiella pneumoniae CCM 4415 (ATCC 10031). Put plainly: Antibacterial microdilution broth method, KP. The following applies: read after 24 h of incubation.
Data set [4] deals with Lichtheimia corymbifera CCM 8077. Put plainly: Antifungal microdilution broth method, LC. It is filed as cell-based. The following applies: CCM8077, 48 h, read-out: MIC LC.
Data set [5] has as its system Aspergillus flavus CCM 8363. Put plainly: Antifungal microdilution broth method, AFla. It is filed as cell-based. The conditions noted are these: CCM8363, read after 48 h (filamentous fungi), read-out: MIC AFla.
In data set [6] the test system is Trichophyton interdigitale CCM 8377 (ATCC 9533). Put plainly: Antifungal microdilution broth method, TI. The following applies: 48 h, read-out: MIC TI. It is filed as cell-based.
Data set [7] concerns Candida albicans CCM 8320 (ATCC 24433). In words: Antifungal microdilution broth method, CA. It is filed as cell-based. The following applies: 24 h, read-out: MIC CA.
In the next data set the test system is HepG2 cell line. Put plainly: HepG2 cytotoxicity, CellTiter 96 (MTS) assay. It is filed as cell-based, human. The following applies: Homo sapiens, read-out: HepG2 IC50.
Data set [8] concerns Aspergillus fumigatus ATCC 204305. In words: Antifungal microdilution broth method, AF. It is filed as cell-based. The conditions noted are these: ATCC204305, 48 h, read-out: MIC AF.
Data set [9] has as its system Candida krusei CCM 8271 (ATCC 6258). In words: Antifungal microdilution broth method, CK. It is filed as cell-based. The conditions noted are these: Pichia kudriavzevii, 24 h, read-out: MIC CK.
Data set [10] concerns Staphylococcus epidermidis CCM 4418 (ATCC 12228). Put plainly: Antibacterial microdilution broth method, SE. The following applies: 24 h, read-out: MIC SE. It is filed as cell-based.
Data set [11] deals with Candida parapsilosis CCM 8260 (ATCC 22019). In words: Antifungal microdilution broth method, CP. It is filed as cell-based. The following applies: Lodderomyces parapsilosis, 24 h, read-out: MIC CP.
Data set [12] has as its system Mycobacterium aurum DSM 43999 (ATCC 23366). Put plainly: Microplate Alamar Blue Assay (MABA) microdilution, M. aurum. It is filed as cell-based. The conditions noted are these: Mycolicibacterium aurum. In general terms: Resazurin is reduced to fluorescent resorufin, in cell work by metabolically active cells.
Data set [13] deals with M. smegmatis DSM 43465 (ATCC 607). Put plainly: Microplate Alamar Blue Assay (MABA) microdilution, M. smegmatis. The conditions noted are these: Mycolicibacterium smegmatis. It is filed as cell-based, Mycobacterium smegmatis.
[14] abbreviates: pH 6.6, read-out: MIC Mtb H37Ra.
[15] abbreviates: pH 6, calculated from µg/mL, read-out: MIC Mtb H37Ra.
Where [16] appears, read: pH 6, read-out: MIC M. aurum µg/mL.
[17] abbreviates: pH 6, read-out: MIC M. smegmatis µg/mL.
The mark [18] stands for this setting: pH 6.6, read-out: MIC M. smegmatis.

The values that follow come from article PMC7181131, “N-Pyrazinoyl Substituted Amino Acids as Potential Antimycobacterial Agents—the Synthesis and Biological Evaluation of Enantiomers” (Molecules, 2020).

pIC50: −log10 of the molar value. In brackets after ≈: the same amount, converted by molar mass. Read-outs that look alike come from different tables or passages of the source.

Turning to `COC(=O)C(NC(=O)c1cnccn1)c1ccccc1` [PC-D/L-Pgl-Me, methyl 2-phenyL-2-(pyrazine-2-carboxamido)acetate], the MIC in data set [1] was 500 µM (≈ 136 µg/mL); in data set [2] (pH 6), under 1.95 µg/mL; in [2] (pH 6, read-out: Mtb pH 6 MIC), under 7 µM; in data set [2] (pH 6, read-out: MIC Mtb H37Ra) it was under 1.95 µg/mL; in [2] (setting [14]), at least 500 µg/mL; in data set [2] (setting [15]) it was under 7.3 µM. In addition, the MIC in data set [4], in [5], in [6], in [7], in data set [8] and in data set [9] was over 500 µM each time. Further, the MIC is over 500 µM in data set [10]; over 500 µM in data set [11]; 31.2 µg/mL (≈ 115 µM) in data set [12] (setting [16]); at least 500 µg/mL in data set [12] (pH 6.6, read-out: MIC M. aurum); at least 250 µg/mL in data set [13] (setting [17]); at least 500 µg/mL in [13] (setting [18]). Moreover, in [3], the “MIC KP” value is over 500 µM. In addition, the negative logarithm of the IC50 (pIC50) with HepG2 cell line (HepG2, 24 h) was under 3.00.

With `C[C@H](NC(=O)c1cnccn1)C(=O)O` [PC-L-Ala, (pyrazine-2-carbonyl)-L-alanine], the MIC in data set [1] was over 500 µM; in [2] (pH 6), at least 250 µg/mL; in data set [2] (pH 6, read-out: MIC Mtb H37Ra) it was at least 250 µg/mL; in data set [2] (setting [14]) it was at least 250 µg/mL; in data set [2] (pH 6, Table 4, read-out: Mtb pH 6 MIC), at least 1280 µM; in data set [2] (setting [15]), at least 1280 µM. For the same molecule, the MIC in [4], in [5], in [6], in data set [7], in [8] and in [9] was over 500 µM throughout. Also, the MIC is over 500 µM in [10]; over 500 µM in data set [11]; 62.5 µg/mL (≈ 320 µM) in data set [12] (setting [16]); at least 250 µg/mL in data set [12] (pH 6.6, read-out: MIC M. aurum); 125 µg/mL (≈ 640 µM) in data set [13] (setting [17]); at least 250 µg/mL in data set [13] (setting [18]). Further, the “MIC KP” value in data set [3] is listed as over 500 µM. In addition, in the data set with HepG2 cell line (HepG2, 24 h incubation, CellTiter 96), the pIC50 was under 3.60.

Regarding `COC(=O)[C@H](CCSC)NC(=O)c1cnccn1` [PC-L-Met-Me, methyl (pyrazine-2-carbonyl)-L-methioninate], the MIC in data set [1] was over 500 µM; in [2] (pH 6), under 3.91 µg/mL; in data set [2] (pH 6, read-out: Mtb pH 6 MIC), 15 µM; in data set [2] (pH 6, read-out: MIC Mtb H37Ra), under 3.91 µg/mL; in [2] (setting [14]), at least 500 µg/mL; in [2] (setting [15]), under 14.5 µM. For the same molecule, the MIC in data set [4] is over 500 µM; in data set [5], over 500 µM; in data set [6] it was 500 µM (≈ 135 µg/mL); in data set [7] it was over 500 µM; in data set [8], over 500 µM; in data set [9], over 500 µM. Moreover, the MIC was over 500 µM in [10]; over 500 µM in data set [11]; 62.5 µg/mL (≈ 232 µM) in data set [12] (setting [16]); at least 500 µg/mL in data set [12] (pH 6.6, read-out: MIC M. aurum); at least 500 µg/mL in [13] (setting [17]); at least 500 µg/mL in [13] (setting [18]). For the same molecule, the “MIC KP” value in data set [3] is over 500 µM. The pIC50 in the data set with HepG2 cell line (HepG2, 24 h) was under 4.00.

Take `COC(=O)[C@H](COCc1ccccc1)NC(=O)c1cnccn1` [PC-L-OBn-Ser-Me, methyl O-benzyl-N-(pyrazine-2-carbonyl)-L-serinate]: the MIC in data set [1] is 125 µM (≈ 39.4 µg/mL); in data set [2] (pH 6) it was 7.81 µg/mL; in data set [2] (pH 6, read-out: Mtb pH 6 MIC), 25 µM; in data set [2] (pH 6, read-out: MIC Mtb H37Ra) it was 7.81 µg/mL; in data set [2] (setting [14]), 250 µg/mL; in data set [2] (setting [15]), 24.8 µM. Further, the MIC in data set [4], in [5], in [6], in data set [7], in data set [8] and in data set [9] was over 250 µM each time. Besides, the MIC in [10] is over 250 µM; in [11] it was over 250 µM; in data set [12] (setting [16]), 62.5 µg/mL (≈ 198 µM); in [12] (pH 6.6, read-out: MIC M. aurum), at least 500 µg/mL; in data set [13] (setting [17]) it was at least 500 µg/mL; in data set [13] (setting [18]), at least 500 µg/mL. The pIC50 in the data set on HepG2 cell line (HepG2, 24 h) is 3.13.

Consider `COC(=O)[C@@H](NC(=O)c1cnccn1)[C@@H](C)OC(C)(C)C` [PC-L-OtBu-Thr-Me, methyl O-(tert-butyl)-N-(pyrazine-2-carbonyl)-L-threoninate], for which the MIC in [1] was over 500 µM; in data set [2] (pH 6), at least 500 µg/mL; in data set [2] (pH 6, read-out: Mtb pH 6 MIC), 1690 µM; in data set [2] (pH 6, read-out: MIC Mtb H37Ra) it was at least 500 µg/mL; in [2] (setting [14]), at least 500 µg/mL; in data set [2] (setting [15]), at least 1690 µM. Moreover, the MIC in data set [4], in data set [5], in data set [6], in data set [7], in [8] and in [9] was over 500 µM each time. Further, the MIC in data set [10] was 62.5 µM (≈ 18.5 µg/mL); in data set [11], over 500 µM; in data set [12] (setting [16]) it was at least 500 µg/mL; in [12] (pH 6.6, read-out: MIC M. aurum), at least 500 µg/mL; in [13] (setting [17]), at least 500 µg/mL; in data set [13] (setting [18]) it was at least 500 µg/mL. Moreover, the “MIC KP” value in data set [3] was over 500 µM. For the same molecule, the pIC50 in the data set on HepG2 cell line (HepG2, 24 h) was under 3.30.

With `COC(=O)[C@H](CO)NC(=O)c1cnccn1` [PC-L-Ser-Me, methyl (pyrazine-2-carbonyl)-L-serinate], the MIC in data set [1] was over 500 µM; in data set [2] (pH 6) it was at least 500 µg/mL; in data set [2] (pH 6, read-out: MIC Mtb H37Ra), at least 500 µg/mL; in data set [2] (setting [14]) it was at least 500 µg/mL; in data set [2] (setting [15]) it was at least 2220 µM; in data set [4], over 500 µM. The MIC in data set [5], in data set [6], in [7], in [8], in data set [9] and in [10] was over 500 µM throughout. Also, the MIC was over 500 µM in [11]; at least 500 µg/mL in [12] (setting [16]); at least 500 µg/mL in data set [12] (pH 6.6, read-out: MIC M. aurum); at least 500 µg/mL in data set [13] (setting [17]); at least 500 µg/mL in data set [13] (setting [18]). The “MIC KP” value in data set [3] is over 500 µM.

For `COC(=O)[C@@H](NC(=O)c1cnccn1)[C@@H](C)O` [PC-L-Thr-Me, methyl (pyrazine-2-carbonyl)-L-threoninate], the MIC in data set [1] is over 500 µM; in data set [2] (pH 6), at least 500 µg/mL; in data set [2] (pH 6, read-out: MIC Mtb H37Ra) it was at least 500 µg/mL; in data set [2] (setting [14]) it was at least 500 µg/mL; in [2] (setting [15]), at least 2090 µM; in [4], over 500 µM. Further, the MIC in data set [5] is over 500 µM; in data set [6], 500 µM (≈ 120 µg/mL); in data set [7], over 500 µM; in [8], over 500 µM; in data set [9] it was over 500 µM; in data set [10], over 500 µM. Moreover, the MIC in [11] is over 500 µM; in data set [12] (setting [16]), at least 500 µg/mL; in data set [12] (pH 6.6, read-out: MIC M. aurum), at least 500 µg/mL; in [13] (setting [17]), at least 500 µg/mL; in data set [13] (setting [18]) it was at least 500 µg/mL. The “MIC KP” value in data set [3] was over 500 µM.

Turning to `COC(=O)[C@@H](NC(=O)c1cnccn1)C(C)C` [PC-L-Val-Me, methyl (pyrazine-2-carbonyl)-L-valinate], the MIC in data set [1] was over 500 µM; in [2] (pH 6) it was at least 125 µg/mL; in data set [2] (pH 6, read-out: MIC Mtb H37Ra) it was at least 125 µg/mL; in data set [2] (setting [14]), at least 500 µg/mL; in data set [2] (setting [15]), at least 527 µM; in data set [4] it was over 500 µM. The MIC in data set [5], in data set [6], in data set [7], in data set [8], in [9] and in [10] was over 500 µM throughout. Besides, the MIC in data set [11] is over 500 µM; in data set [12] (setting [16]) it was at least 125 µg/mL; in data set [12] (pH 6.6, read-out: MIC M. aurum), at least 500 µg/mL; in data set [13] (setting [17]), at least 125 µg/mL; in data set [13] (setting [18]), 250 µg/mL (≈ 1050 µM). Besides, the “MIC KP” value in data set [3] was over 500 µM.

By pIC50 is commonly meant the IC50 on a negative log10 scale, so that one unit is a factor of ten.
